# Measurements as given in patent publication US20050112573A1, “Method of detecting toxic substance” (priority 2001, published 2005).
# Test system: yeast genes (level of expressed mRNA)
# Experiment: DNA chip analysis of expressed mRNA of yeast genes after 2 h culture with a toxic chemical substance
# Type: cell-based, Saccharomyces cerevisiae S288C
# Protocol: Yeast (Saccharomyces cerevtisiae S288C (α SUC2mal mel gap2 CUP1)) were cultured at 25° C. on YPD medium (yeast extract 1%, polypepton 2%, glucose 2%). One of toxic chemical substances was added to the cell at logarithmic growth phase, and the cell was further cultured for two hours. Cell was cultured without any chemical substance in the same condition, and was used as control. Concentrations of the chemical substances were defined to inhibit the growth of the yeast but not lead to death.
# After the completion of cultivation, the culture was centrifuged to collect the cells. To the cells, sodium acetate buffer (50 mM sodium acetate, 10 mM EDTA, 1% SDS) was added, and the mixture was shaken at 65° C. for five minutes, followed by returning to room temperature, and obtaining the supernatant, which procedure was repeated two times. To the supernatant, ½ amount of a solution of phenol/chloroform was added, and the mixture was centrifuged to give a supernatant, which was added with an equal amount of chloroform, and the mixture was centrifuged to give a supernatant. To the supernatant, an equal amount of isopropanol containing 0.3 M sodium acetate was added, and the mixture was allowed to stand at room temperature for 30 minutes, after which the mixture was centrifuged to give a sediment of the whole RNAs. Seventy % ethanol was added to the sediment, and the mixture was again centrifuged to give a sediment, which was then dried and dissolved in water. mRNA was isolated from the whole RNAs as followings. In view of the fact that a poly A chain is attached to the 3′ terminus of mRNA, a polynucleotide having a poly T structure which was immobilized on the surface of latex beads was used to trap the mRNA, and then the mRNA was washed and eluted with spine column (Oligotex-dT30<Super>mRNA Purification Kit, Takara). Reverse transcription of the mRNA was conducted with a reverse transcriptase (Super Script II Reverse Transcriptase; catalogue No. 18064-014, GibcoBRL) using fluorescence-labeled nucleotides to give cDNAs that were introduced with Cy3-dUTP or Cy5-dUTP during the reverse transcription.
# The labeled cDNAs were dissolved in TE buffer (10 mM Tris-HCl/1 mM EDTA, pH8.0), and the solution was dropped on the DNA chip containing the whole genes of yeast (DNA Chip Research Inc. Japan) so that the cDNAs were hybridized on the DNA chip at 65° C. for over 12 hours. The fluoresces intensity of the DNA chip was read with a scanner, and the ratio relative to the fluorescence intensity resulting from the absence of chemical substance was estimated as the following, which is shown in Tables 1 to 9: [formula]
# In the Tables, “Intensity” indicated in the rightmost column is a value of the level of expressed mRNA of each gene in control cells as divided by the average level of the expressions of the whole genes.
compound,measurement,setting,value
"C=CC=O [(14), acrolein]",The level of expressed mRNA in the presence of chemical substance/absence: YDR128W,gene YDR128W,1.0
same,The level of expressed mRNA in the presence of chemical substance/absence: YDR133C,gene YDR133C,0.6
same,The level of expressed mRNA in the presence of chemical substance/absence: YDR140W,gene YDR140W,3.2
same,The level of expressed mRNA in the presence of chemical substance/absence: YDR221W,gene YDR221W,1.0
same,The level of expressed mRNA in the presence of chemical substance/absence: YDR250C,gene YDR250C,0.9
same,The level of expressed mRNA in the presence of chemical substance/absence: YDR271C,gene YDR271C,1.4
same,The level of expressed mRNA in the presence of chemical substance/absence: YDR278C,gene YDR278C,0.9
same,The level of expressed mRNA in the presence of chemical substance/absence: YDR281C,gene YDR281C,1.2
same,The level of expressed mRNA in the presence of chemical substance/absence: YDR316W,gene YDR316W,0.7
same,The level of expressed mRNA in the presence of chemical substance/absence: YDR338C,gene YDR338C,1.0
same,The level of expressed mRNA in the presence of chemical substance/absence: YDR366C,gene YDR366C,1.4
same,level of expressed mRNA in the presence of chemical substance/in its absence,gene YDR380W,0.6
same,level of expressed mRNA in the presence of chemical substance/in its absence,gene YDR410C,1.3
same,The level of expressed mRNA in the presence of chemical substance/absence: YDR421W,gene YDR421W,1.2
same,The level of expressed mRNA in the presence of chemical substance/absence: YDR425W,gene YDR425W,1.3
same,The level of expressed mRNA in the presence of chemical substance/absence: YDR485C,gene YDR485C,1.1
same,level of expressed mRNA in the presence of chemical substance/in its absence,gene YDR487C,2.5
same,level of expressed mRNA in the presence of chemical substance/in its absence,gene YDR502C,0.8
same,The level of expressed mRNA in the presence of chemical substance/absence: YDR504C,gene YDR504C,1.3
same,level of expressed mRNA in the presence of chemical substance/in its absence,gene YEL011W,1.5
same,level of expressed mRNA in the presence of chemical substance/in its absence,gene YEL020C,1.0
same,The level of expressed mRNA in the presence of chemical substance/absence: YEL044W,gene YEL044W,0.6
same,level of expressed mRNA in the presence of chemical substance/in its absence,gene YER026C,1.1
same,level of expressed mRNA in the presence of chemical substance/in its absence,gene YER069W,1.3
same,The level of expressed mRNA in the presence of chemical substance/absence: YER092W,gene YER092W,1.2
same,The level of expressed mRNA in the presence of chemical substance/absence: YER182W,gene YER182W,1.9
same,The level of expressed mRNA in the presence of chemical substance/absence: YFL042C,gene YFL042C,1.2
same,level of expressed mRNA in the presence of chemical substance/in its absence,gene YFR015C,3.1
same,The level of expressed mRNA in the presence of chemical substance/absence: YFR026C,gene YFR026C,1.0
same,The level of expressed mRNA in the presence of chemical substance/absence: YFR056C,gene YFR056C,0.6
same,level of expressed mRNA in the presence of chemical substance/in its absence,gene YGL001C,1.1
same,level of expressed mRNA in the presence of chemical substance/in its absence,gene YGL022W,0.5
same,level of expressed mRNA in the presence of chemical substance/in its absence,gene YGL039W,0.9
same,The level of expressed mRNA in the presence of chemical substance/absence: YGL041C,gene YGL041C,1.2
same,The level of expressed mRNA in the presence of chemical substance/absence: YGL045W,gene YGL045W,1.1
same,The level of expressed mRNA in the presence of chemical substance/absence: YGL057C,gene YGL057C,1.5
same,The level of expressed mRNA in the presence of chemical substance/absence: YGL088W,gene YGL088W,1.4
same,level of expressed mRNA in the presence of chemical substance/in its absence,gene YGL104C,1.0
same,level of expressed mRNA in the presence of chemical substance/in its absence,gene YGL134W,1.1
same,level of expressed mRNA in the presence of chemical substance/in its absence,gene YGL154C,1.1
same,The level of expressed mRNA in the presence of chemical substance/absence: YGL183C,gene YGL183C,1.7
same,level of expressed mRNA in the presence of chemical substance/in its absence,gene YGL209W,1.6
same,The level of expressed mRNA in the presence of chemical substance/absence: YGL223C,gene YGL223C,0.9
same,level of expressed mRNA in the presence of chemical substance/in its absence,gene YGL253W,0.5
same,The level of expressed mRNA in the presence of chemical substance/absence: YGR038W,gene YGR038W,1.4
same,level of expressed mRNA in the presence of chemical substance/in its absence,gene YGR060W,0.8
same,The level of expressed mRNA in the presence of chemical substance/absence: YGR139W,gene YGR139W,0.9
same,The level of expressed mRNA in the presence of chemical substance/absence: YGR156W,gene YGR156W,1.6
same,The level of expressed mRNA in the presence of chemical substance/absence: YGR198W,gene YGR198W,0.8
same,The level of expressed mRNA in the presence of chemical substance/absence: YGR210C,gene YGR210C,0.8
same,The level of expressed mRNA in the presence of chemical substance/absence: YGR211W,gene YGR211W,0.4
same,The level of expressed mRNA in the presence of chemical substance/absence: YGR237C,gene YGR237C,0.6
same,The level of expressed mRNA in the presence of chemical substance/absence: YGR243W,gene YGR243W,1.9
same,The level of expressed mRNA in the presence of chemical substance/absence: YGR250C,gene YGR250C,1.3
same,The level of expressed mRNA in the presence of chemical substance/absence: YGR266W,gene YGR266W,0.8
same,The level of expressed mRNA in the presence of chemical substance/absence: YGR277C,gene YGR277C,1.5
same,level of expressed mRNA in the presence of chemical substance/in its absence,gene YGR282C,1.0
